Drawing on PubChem BioAssay AID1259407 (Chemical Carcinogenesis Research Information System (CCRIS), 2018), this text covers mutagenic call for 3 molecules.

The subject of the data set is CCRIS mutagenicity, Ames/micronucleus/aberration tests. As to the kind of experiment: CCRIS mutagenicity studies.
[1] abbreviates: Test System: AMES SALMONELLA TYPHIMURIUM, Strain/Indicator: TA98, Metabolic Activation: RAT, LIVER, S-9, AROCLOR 1254, Method: STANDARD PLATE.
[2] abbreviates: Test System: AMES SALMONELLA TYPHIMURIUM, Strain/Indicator: TA100, Metabolic Activation: NONE, Method: STANDARD PLATE.
[3] abbreviates: Test System: AMES SALMONELLA TYPHIMURIUM, Strain/Indicator: TA1535, Metabolic Activation: RAT, LIVER, S-9, AROCLOR 1254, Method: STANDARD PLATE.
[4] abbreviates: Test System: AMES SALMONELLA TYPHIMURIUM, Strain/Indicator: TA1538, Metabolic Activation: RAT, LIVER, S-9, AROCLOR 1254, Method: STANDARD PLATE.
Where [5] appears, read: Test System: MOUSE LYMPHOMA, Strain/Indicator: L5178Y (TK+/TK-), Metabolic Activation: NONE, Method: SUSPENSION/PLATE.
The mark [6] stands for this setting: Test System: MOUSE LYMPHOMA, Strain/Indicator: L5178Y (TK+/TK-), Metabolic Activation: RAT, LIVER, S-9, AROCLOR 1254, Method: SUSPENSION/PLATE.

Calls of active or inactive are those of the source. The rule behind the calls is not given here.

For the molecule `COc1cc(-c2ccc(N)c(OC)c2)ccc1N`, the mutagenic call was “active; positive (structural changes); precipitation of test chemical observed above 0.6” (End Point: IN VITRO CHROMOSOMAL ABERRATIONS, Test System: CHL CELLS, Metabolic Activation: RAT, LIVER, S-9, SODIUM PHENOBARBITAL AND 5,6-BENZOFLAVONE); “inactive; negative” (Test System: AMES SALMONELLA TYPHIMURIUM, Strain/Indicator: SV50, Metabolic Activation: NONE, Method: PREINCUBATION (PRIVAL METHOD)); “inactive; negative” (Test System: AMES SALMONELLA TYPHIMURIUM, Strain/Indicator: SV50, Metabolic Activation: RAT, LIVER, S-9, AROCLOR 1254, Method: STANDARD PLATE); “inactive; negative” (Test System: AMES SALMONELLA TYPHIMURIUM, Strain/Indicator: TA98(1,8-DNP6), Metabolic Activation: NONE, Method: STANDARD PLATE); “active; positive” (Test System: AMES SALMONELLA TYPHIMURIUM, Strain/Indicator: TA98(1,8-DNP6), Metabolic Activation: S-9, Method: STANDARD PLATE); “active; positive” (Test System: AMES SALMONELLA TYPHIMURIUM, Strain/Indicator: TA98, Metabolic Activation: HAMSTER, LIVER, S-9, AROCLOR 1254, Method: PREINCUBATION). For the same molecule, the mutagenic call runs as follows: (Test System: AMES SALMONELLA TYPHIMURIUM, Strain/Indicator: TA98, Metabolic Activation: HAMSTER, LIVER, S-9, Method: PREINCUBATION (PRIVAL METHOD)) “inactive; negative”; (Test System: AMES SALMONELLA TYPHIMURIUM, Strain/Indicator: TA98, Metabolic Activation: RAT LIVER S-9, AROCLOR 1254, Method: PREINCUBATION) “active; positive”; (Test System: AMES SALMONELLA TYPHIMURIUM, Strain/Indicator: TA98, Metabolic Activation: RAT LIVER S-9, PHENOBARBITAL AND BETA-NAPHTHOFLAVONE, Method: PREINCUBATION) “active; positive”; (Test System: AMES SALMONELLA TYPHIMURIUM, Strain/Indicator: TA98, Metabolic Activation: RAT, LIVER, S-9, AROCLOR 1254, Method: PREINCUBATION) “active; positive”; under setting [1], “active; positive”; (Test System: AMES SALMONELLA TYPHIMURIUM, Strain/Indicator: TA98, Metabolic Activation: RAT, LIVER, S-9, PCB, Method: PREINCUBATION) “active; positive”. Further, the mutagenic call runs as follows: (Test System: AMES SALMONELLA TYPHIMURIUM, Strain/Indicator: TA98, Metabolic Activation: S-9, Method: STANDARD PLATE) “active; positive”; (Test System: AMES SALMONELLA TYPHIMURIUM, Strain/Indicator: TA100, Metabolic Activation: HAMSTER, LIVER, S-9, AROCLOR 1254, Method: PREINCUBATION) “inactive; negative”; (Test System: AMES SALMONELLA TYPHIMURIUM, Strain/Indicator: TA100, Metabolic Activation: NONE, Method: PREINCUBATION) “inactive; negative”; under setting [2], “inactive; negative”; (Test System: AMES SALMONELLA TYPHIMURIUM, Strain/Indicator: TA100, Metabolic Activation: RAT LIVER S-9, AROCLOR 1254, Method: PREINCUBATION) “active; positive”; (Test System: AMES SALMONELLA TYPHIMURIUM, Strain/Indicator: TA100, Metabolic Activation: RAT LIVER S-9, PHENOBARBITAL AND BETA-NAPHTHOFLAVONE, Method: PREINCUBATION) “inactive; negative”. The mutagenic call reads like this: (Test System: AMES SALMONELLA TYPHIMURIUM, Strain/Indicator: TA100, Metabolic Activation: RAT, LIVER, S-9, AROCLOR 1254, Method: PREINCUBATION) “active; positive”; (Test System: AMES SALMONELLA TYPHIMURIUM, Strain/Indicator: TA100, Metabolic Activation: RAT, LIVER, S-9, PCB, Method: PREINCUBATION) “active; positive”; (Test System: AMES SALMONELLA TYPHIMURIUM, Strain/Indicator: TA100, Metabolic Activation: S-9, Method: STANDARD PLATE) “inactive; negative”; (Test System: AMES SALMONELLA TYPHIMURIUM, Strain/Indicator: TA1535, Metabolic Activation: NONE, Method: PREINCUBATION) “inactive; negative”; (Test System: AMES SALMONELLA TYPHIMURIUM, Strain/Indicator: TA1535, Metabolic Activation: RAT, LIVER, S-9, AROCLOR 1254, Method: PREINCUBATION) “inactive; negative”; under setting [3], “active; positive”. The mutagenic call by setting is: (Test System: AMES SALMONELLA TYPHIMURIUM, Strain/Indicator: TA1537, Metabolic Activation: HAMSTER, LIVER, S-9, AROCLOR 1254, Method: PREINCUBATION) “inactive; negative”; (Test System: AMES SALMONELLA TYPHIMURIUM, Strain/Indicator: TA1537, Metabolic Activation: NONE, Method: PREINCUBATION) “inactive; negative”; (Test System: AMES SALMONELLA TYPHIMURIUM, Strain/Indicator: TA1537, Metabolic Activation: RAT LIVER S-9, PHENOBARBITAL AND BETA-NAPHTHOFLAVONE, Method: PREINCUBATION) “inactive; negative”; (Test System: AMES SALMONELLA TYPHIMURIUM, Strain/Indicator: TA1537, Metabolic Activation: RAT, LIVER, S-9, AROCLOR 1254, Method: PREINCUBATION) “inactive; negative”; (Test System: AMES SALMONELLA TYPHIMURIUM, Strain/Indicator: TA1538, Metabolic Activation: HAMSTER, LIVER, S-9, Method: STANDARD PLATE) “active; positive”; under setting [4], “active; positive”. Moreover, the mutagenic call was “active; positive” (Test System: AMES SALMONELLA TYPHIMURIUM, Strain/Indicator: TA1538, Metabolic Activation: RAT, LIVER, S-9, PHENOBARBITAL, Method: STANDARD PLATE); “active; positive, test conducted under both aerobic and anaerobic conditions” (Test System: Ames Salmonella typhimurium, Strain/Indicator: TA98, Metabolic Activation: Rat, Liver, S-9, Sodium phenobarbitone, Method: Preincubation); “inactive; negative” (Test System: Ames Salmonella typhimurium, Strain/Indicator: TA102, Metabolic Activation: None, Method: Preincubation); “active; positive” (Test System: Ames Salmonella typhimurium, Strain/Indicator: TA102, Metabolic Activation: Rat, Liver, S-9, Aroclor 1254, 4%, Method: Preincubation); “active; positive, test conducted under both aerobic and anaerobic conditions” (Test System: Ames Salmonella typhimurium, Strain/Indicator: TA1538, Metabolic Activation: Rat, Liver, S-9, Sodium phenobarbitone, Method: Preincubation); “active; positive” under setting [5]. The mutagenic call reads like this: under setting [6], “active; positive”; (Test System: UDS HUMAN CELLS, Strain/Indicator: THY INCORP (NON-S-PHASE), Metabolic Activation: RAT, LIVER, S-9, PHENOBARBITAL, Method: LIQUID SCINTILLATION COUNTING) “active; positive”.

As for `c1cnc2c3c(ccc2c1)C1OC1CC3` (configuration not stated), under setting [2], the mutagenic call was “inactive; negative”.

`CC(C)C[C@H]1C(=O)N2CCC[C@H]2[C@]2(O)O[C@](NC(=O)[C@@H]3C[C@@H]4c5cccc6[nH]cc(c56)C[C@H]4N(C)C3)(C(C)C)C(=O)N12`: the mutagenic call by setting is: (Test System: AMES SALMONELLA TYPHIMURIUM, Strain/Indicator: TA98, Metabolic Activation: NONE, Method: STANDARD PLATE) “inactive; negative”; under setting [1], “inactive; negative”; under setting [2], “inactive; negative”; (Test System: AMES SALMONELLA TYPHIMURIUM, Strain/Indicator: TA100, Metabolic Activation: RAT, LIVER, S-9, AROCLOR 1254, Method: STANDARD PLATE) “inactive; negative”; (Test System: AMES SALMONELLA TYPHIMURIUM, Strain/Indicator: TA1535, Metabolic Activation: NONE, Method: STANDARD PLATE) “inactive; negative”; under setting [3], “inactive; negative”. The mutagenic call was “inactive; negative” (Test System: AMES SALMONELLA TYPHIMURIUM, Strain/Indicator: TA1537, Metabolic Activation: NONE, Method: STANDARD PLATE); “inactive; negative” (Test System: AMES SALMONELLA TYPHIMURIUM, Strain/Indicator: TA1537, Metabolic Activation: RAT, LIVER, S-9, AROCLOR 1254, Method: STANDARD PLATE); “inactive; negative” (Test System: AMES SALMONELLA TYPHIMURIUM, Strain/Indicator: TA1538, Metabolic Activation: NONE, Method: STANDARD PLATE); “inactive; negative” under setting [4]; “inactive; negative” under setting [5]; “inactive; negative” under setting [6]. Moreover, the mutagenic call (Test System: UDS RAT HEPATOCYTES, Strain/Indicator: THY INCORP, Metabolic Activation: NONE) was “inactive; negative”.
